Experimental data taken from publication PMC8197855, “Peptide/β-Peptoid Hybrids with Activity against Vancomycin-Resistant Enterococci: Influence of Hydrophobicity and Structural Features on Antibacterial and Hemolytic Properties” (International Journal of Molecular Sciences, 2021).
Values after ≈ are worked out from the molar mass of the structure shown.

Columns and labels:
E. faecium ATCC 19434 = experiment: Time-kill kinetics; format: cell-based, Enterococcus faecium; settings: for Reduction in viable bacteria (time-kill): up to 5 h exposure, BHI broth
Protocol: (§1) Time–kill kinetics were established for compounds 2, 5 and 10 in E. faecium ATCC 19434 and E. faecalis ATCC 29212. Prior to the experiments, the isolates were incubated on BHI agar supplemented with 5% calf blood at 37 °C overnight (ON). For each of the strains 1-2 colonies were transferred into 4 mL BHI broth and incubated ON at 37 °C with shaking (180 rpm). OD600 was measured, and then cultures were diluted with BHI broth to an OD600 of 0.05 and grown for approximately 2 h to reach the exponential phase.
(§2) One untreated control per strain was prepared. The inoculum was quantified by plating and subsequently enumerated. The initial inocula were approximately 10^7 CFU/mL. Two controls were included, both without bacteria and one including the respective compound without bacteria. All tubes were incubated at 37 °C with shaking (180 rpm). Samples of 100 µL were taken after 1 h, 3 h and 5 h of exposure. Appropriate dilutions were spread onto BHI agar plates and incubated at 37 °C overnight, and then colonies were enumerated. Plates were incubated for 24 h and 48 h, and then checked for the appearance of slow-growing colonies. The experiments were performed with at least three biological replicates for each condition and time point.

E. faecalis 39002 = experiment: microbe, parasite or virus in culture; format: cell-based, Enterococcus faecalis; settings: 39002, 24 h
E. faecalis 38262 = experiment: microbe, parasite or virus in culture; format: cell-based, Enterococcus faecalis; settings: 38262, 24 h
[1] = system: HepG2 cell line ATCC HB-8065; experiment: Effect on HepG2 cell viability (MTT assay); format: cell-based, human; settings: 48 h
How it was run: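 HepG2 cells at 5000/well, pre-cultured 24 h, then exposed 48 h at 37 °C to serial dilutions over 10–1280 μg/mL. Viability was read by MTT (0.2 mg/mL, 3 h, A540 after DMSO solubilization) relative to untreated control, and IC50 was fitted.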

E. faecalis ATCC 29212 [2] = experiment: microbe, parasite or virus in culture; format: cell-based, Enterococcus faecalis; settings: ATCC 29212, 24 h
E. faecalis (MV269) = format: cell-based, Enterococcus faecalis; settings: MV269, 24 h
Protocol: The minimum bactericidal concentration (MBC) is defined as the lowest concentration of the peptidomimetics that kills 99.9% of the bacterial population. All experiments were performed in three biological replicates.

E. faecalis ATCC 29212 [3] = experiment: Time-kill kinetics; format: cell-based, Enterococcus faecalis; settings: for Reduction in viable bacteria (time-kill): 4× MIC (compound 2: 8 µg/mL, 2–4× MIC), 5 h exposure, BHI broth
Protocol: as §1, §2

enterococci = experiment: Checkerboard assay, overall synergy statements; format: cell-based, Enterococcus faecium and Enterococcus faecalis; settings: for Resensitization of two vancomycin-resistant E. faecium isolates toward vancomycin / Sensitization of enterococcal isolates to gentamicin: sub-inhibitory concentrations; for Synergy with conventional antibiotics: vancomycin, gentamicin, ciprofloxacin, linezolid, rifampicin or azithromycin, synergy = FICI ≤ 0.5
Protocol: The strain culture preparation and final volume were the same as in the MIC assay. […] The plates were incubated for 24 h at 37 °C without shaking. […] All experiments were performed in two biological replicates.
To evaluate the effect of the combinations, the fractional inhibitory concentration index (FICI) was calculated for each combination according to:ΣFIC = FICA + FICB = (CA/MICA) + (CB/MICB)
The drug interaction was scored as follows: synergy—FICI ≤ 0.5; no interaction—FICI > 0.5–4; antagonism—FICI > 4 [40].

E. faecium 1798 = experiment: microbe, parasite or virus in culture; format: cell-based, Enterococcus faecium; settings: 1798, 24 h
E. faecium 3978 = experiment: microbe, parasite or virus in culture; format: cell-based, Enterococcus faecium; settings: 3978, 24 h
E. faecium 2961 = experiment: microbe, parasite or virus in culture; format: cell-based, Enterococcus faecium; settings: 2961, 24 h
E. faecium D344R = experiment: microbe, parasite or virus in culture; format: cell-based, Enterococcus faecium; settings: E. faecium D344R, human clinical isolate; 24 h
[4] = Hydrophobicity by analytical RP-HPLC (% MeCN at peak elution); format: physicochemical
Protocol: Water was filtered by using an Evoqua LaboStar PRO TWF Ultra Pure Water System prior to use in high-performance liquid chromatography (HPLC). The retention time for each peptidomimetic was determined by analytical HPLC using a Phenomenex Luna C18(2) HST column (100 mm × 3 mm; particle size: 2.5 μm; pore size: 100 Å) on a Shimadzu Prominence and Shimadzu Nexera system using an aqueous MeCN gradient with 0.1% trifluoroacetic acid (TFA) added (eluent A: 5:95 MeCN–H2O + 0.1% TFA; eluent B: 95:5 MeCN–H2O + 0.1% TFA); a flow rate of 0.5 mL/min was used. For the elution of peptidomimetics, a linear gradient of 0% to 60% B over 10 min was used with UV detection at λ = 220 nm. The percentage MeCN at peak elution was calculated from the retention time (tR) by using the following formula:%MeCN = [0.95 × 0.6 × tR/10 + 0.05 × (1 − 0.6 × tR/10)] × 100%

Compound | Bactericidal or bacteriostatic mode of action (E. faecium ATCC 19434; 8 µg/mL (4× MIC)) | Reduction in viable bacteria (time-kill) (E. faecium ATCC 19434; 4× MIC) | Minimum inhibitory concentration (E. faecalis 39002) [µg/mL] | Minimum inhibitory concentration (E. faecalis 38262) [µg/mL] | HepG2 IC50 [1] [µg/mL] | Minimum inhibitory concentration (E. faecalis ATCC 29212 [2]) [µg/mL] | Minimum bactericidal concentration (E. faecalis (MV269)) [µg/mL] | Reduction in viable bacteria (time-kill) (E. faecalis ATCC 29212 [3]) | Resensitization of two vancomycin-resistant E. faecium isolates toward vancomycin (enterococci) | Sensitization of enterococcal isolates to gentamicin (enterococci) | Synergy with conventional antibiotics (enterococci) | Minimum inhibitory concentration (E. faecium 1798) [µg/mL] | Minimum inhibitory concentration (E. faecium 3978) [µg/mL] | Minimum inhibitory concentration (E. faecium 2961) [µg/mL] | Minimum inhibitory concentration (E. faecium D344R) [µg/mL] | Hydrophobicity, Luna C18(2) HST (0–60% B; 10 min), retention converted into % MeCN [4] [% MeCN] | Reduction in viable cell counts within 1 h (E. faecium ATCC 19434; 4× MIC, within 1 h of exposure) | Reduction in viable cell counts within 1 h (E. faecalis ATCC 29212 [3]; 4× MIC, within 1 h of exposure)
CC(=O)N[C@@H](CCCCNC(=N)N)C(=O)N(CCC(=O)N[C@@H](CCCCNC(=N)N)C(=O)N(CCC(=O)N[C@@H](CCCCNC(=N)N)C(=O)N(CCC(=O)N[C@@H](CCCCNC(=N)N)C(=O)N(CCC(=O)N[C@@H](CCCCNC(=N)N)C(=O)N(CCC(=O)N[C@@H](CCCCNC(=N)N)C(=O)N(CCC(N)=O)[C@@H](C)C1CCCCC1)[C@@H](C)C1CCCCC1)[C@@H](C)C1CCCCC1)[C@@H](C)C1CCCCC1)[C@@H](C)C1CCCCC1)[C@@H](C)C1CCCCC1 [Compound 2, Ac-[hArg-βNsce]6-NH2] | bactericidal | approximately 3 log | 2 (≈ 0.922 µM) | 4 (≈ 1.84 µM) | 15 | 2 to 4 | 8 (≈ 3.69 µM) | approximately 2 log | this was not the case | did not sensitize | no synergy | 2 (≈ 0.922 µM) | 2 (≈ 0.922 µM) | 2 (≈ 0.922 µM) | 2 (≈ 0.922 µM) | 51.6 | – | –
CC(=O)N[C@@H](CCCCNC(=N)N)C(=O)N(CCC(=O)N[C@@H](CCCCN)C(=O)N(CCC(=O)N[C@@H](CCCCNC(=N)N)C(=O)N(CCC(=O)N[C@@H](CCCCN)C(=O)N(CCC(=O)N[C@@H](CCCCNC(=N)N)C(=O)N(CCC(=O)N[C@@H](CCCCN)C(=O)N(CCC(N)=O)[C@@H](C)c1ccccc1)[C@@H](C)C1CCCCC1)[C@@H](C)c1ccccc1)[C@@H](C)C1CCCCC1)[C@@H](C)c1ccccc1)[C@@H](C)C1CCCCC1 [Compound 5, Ac-[hArg-βNsce-Lys-βNspe]3-NH2] | – | 1.5 log | 8 to 16 | 8 to 16 | 73 | 4 to 8 | 16 (≈ 7.91 µM) | 3 log | this was not the case | did not sensitize | no synergy | 2 (≈ 0.988 µM) | 2 (≈ 0.988 µM) | 2 (≈ 0.988 µM) | 2 (≈ 0.988 µM) | 46.6 | no reduction in viable cell counts | no reduction in viable cell counts
CCCCCCCC(=O)N[C@@H](CCCCN)C(=O)N(CCC(=O)N[C@@H](CCCCN)C(=O)N(CCC(=O)N[C@@H](CCCCN)C(=O)N(CCC(=O)N[C@@H](CCCCN)C(=O)N(CCC(=O)N[C@@H](CCCCN)C(=O)N(CCC(=O)N[C@@H](CCCCN)C(=O)N(CCC(N)=O)[C@@H](C)c1ccccc1)[C@@H](C)c1ccccc1)[C@@H](C)c1ccccc1)[C@@H](C)c1ccccc1)[C@@H](C)c1ccccc1)[C@@H](C)c1ccccc1 [Compound 10, Oct-[Lys-βNspe]6-NH2] | – | 4 log | 8 (≈ 4.07 µM) | 16 (≈ 8.15 µM) | 41 | 8 to 16 | 32 (≈ 16.3 µM) | 5 log | this was not the case | did not sensitize | no synergy | 2 to 4 | 2 to 4 | 4 (≈ 2.04 µM) | 4 (≈ 2.04 µM) | 47.2 | – | –
